We go through two compounds from US9175320B2, “Processes for the preparation of (R)-2-(7-4-cyclopentyl-3-(trifluoromethyl)benzyloxy)-1,2,3,4-tetrahydrocyclopenta[B]indol-3-yl)acetic acid and salts thereof” (ARENA PHARMACEUTICALS, INC., priority 2010, dated 2015).

SMILES strings stand for the structures.

For data set [1], the system named is Sprague-Dawley rats. The data set can be described thus: Rat Peripheral Lymphocyte Lowering (PLL) assay. In kind it is in vivo. The following applies: 1.00 mg/kg oral dose, 5 hours post-dose, male Sprague-Dawley rats, vs vehicle (FIG. 2). The protocol:
Animals: Male Sprague-Dawley rats (7 weeks of age at start of study) (Charles River Laboratories) were housed two per cage and maintained in a humidity-controlled (40-60%) and temperature-controlled (68-72° F.) facility on a 12 h: 12 h light/dark cycle (lights on at 6:30 am) with free access to food (Harlan Teklad, Orange, Calif., Rodent Diet 8604) and water. Rats were allowed one week of habituation to the animal facility before testing. PLL Assay: […] Peripheral blood samples were collected at 5 hours post-dose. Blood was collected via indwelling catheter. A complete cell count (CBC), including lymphocyte count, was obtained using a CELL-DYN® 3700 (Abbott Laboratories, Abbott Park, Ill.) instrument. Results are presented in FIG. 2, in which peripheral blood lymphocyte (PBL) count is shown for the 5 hour group.

For a further data set, the system named is BALB/c mice. The data set can be described thus: Mouse Peripheral Lymphocyte Lowering (PLL) assay. As to conditions: 1.00 mg/kg oral dose, 5 hours post-dose, male BALB/c mice, vs vehicle (FIG. 1). In kind it is in vivo. The protocol: Animals: Male BALB/c mice (Charles River Laboratories, Wilmington, Mass.) were housed four per cage and maintained in a humidity-controlled (40 to 60%) and temperature-controlled (68 to 72° F.) facility on a 12 h:12 h light/dark cycle (lights on at 6:30 am) with free access to food (Harlan Teklad, Orange, Calif., Rodent Diet 8604) and water. Mice were allowed one week of habituation to the animal facility before testing. PLL Assay: […] Peripheral blood samples were collected at 5 hours post-dose. The mice were anesthetized with isoflurane and blood was collected via cardiac puncture. A complete cell count (CBC), including lymphocyte count, was obtained using a CELL-DYN® 3700 (Abbott Laboratories, Abbott Park, Ill.) instrument. Results are presented in FIG. 1, in which peripheral blood lymphocyte (PBL) count is shown for the 5 hour group.

For data set [2], the system named is Sprague-Dawley rats. The data set can be described thus: Cardiac telemetry in the rat (bradycardia assay). In kind it is in vivo. As to conditions: oral, vehicle PEG400, heart rate measured over a 120 min period, vs vehicle. How it is done:
Animals: Male Sprague-Dawley rats (250-300 g at time of surgery) were implanted by Charles River Laboratories (Wilmington, Mass.) with cardiac transmitting devices (Data Sciences PhysioTel C50-PXT) into the peritoneal space, with a pressure-sensing catheter inserted into the descending aorta. Rats are allowed at least one week to recover. Rats were housed in individual cages and maintained in a humidity-controlled (30-70%) and temperature-controlled (20-22° C.) facility on a 12 h:12 h light/dark cycle (lights on at 7:00 am) with free access to food (Harlan-Teklad, Orange, Calif., Rodent Diet 8604) and water. Rats were allowed one week of habituation to the animal facility before testing. Measurement of cardiovascular parameters: The implanted transmitting devices transmitted continuous measurements of blood pressure (systolic, diastolic, mean arterial, pulse), heart rate, body temperature, and motor activity in freely moving conscious animals. […] Telemetry recording occurred over a 21-h period, starting at noon and continuing until 9:00 am the following day. A maximum of eight rats were tested at a time, and the same eight rats were utilized for all treatment groups in a within-subject design. Drug treatment: […] A full study (vehicle+3 doses) required four separate testing sessions, which occur on Mondays-Tuesdays and Thursdays-Fridays. […]

A further data set deals with S1P1 receptor (Homo sapiens (Human), UniProt P21453). The data set is described as follows: HTRF assay for direct cAMP measurement. In kind it is cell-based. The following applies: recombinant CHO-K1 cells stably transfected with S1P1. An excerpt:
CHO-K1 cells were obtained from ATCC® (Manassas, Va.; Catalog #CCL-61). […] The HTRF® assay has been used to determine EC50 values for S1P1 receptor agonists. Principle of the assay: HTRF® assay kit was purchased from Cisbio-US, Inc. (Bedford, Mass.; Catalog #62AM4PEC). The HTRF® assay supported by the kit is a competitive immunoassay between endogenous cAMP produced by the CHO-K1 cells and tracer cAMP labeled with the dye d2. The tracer binding is visualized by a monoclonal anti-cAMP antibody labeled with Cryptate. The specific signal (i.e., fluorescence resonance energy transfer, FRET) is inversely proportional to the concentration of unlabeled cAMP in the standard or sample. Standard curve: The fluorescence ratio (665 nm/620 nm) of the standards (0.17 to 712 nM cAMP) included in the assay was calculated and used to generate a cAMP standard curve according to the kit manufacturer's instructions. The fluorescence ratio of the samples (test compound or compound buffer) was calculated and used to deduce respective cAMP concentrations by reference to the cAMP standard curve. […] The plate was then further incubated at room temperature for 1 hour, after which the assay plate was read. Assay readout: HTRF® readout was accomplished using a PHERAstar (BMG LABTECH Inc., Durham, N.C.) or EnVision™ (PerkinElmer, Fremont Calif.) microplate reader.
(Time-resolved FRET reads energy transfer from a long-lived donor to a nearby acceptor.)

The subject of the next data set is Female Lewis rats. The data set is described as follows: Collagen-induced arthritis rat model. The following applies: 0.3, 1 and 3 mg/kg p.o., q.d., day 0 through day 16 (FIG. 3). The format is in vivo. The protocol:
Female Lewis rats were used in this study. Acclimated animals were anesthetized with isoflurane and given the first collagen injection (day 0). On day 6, they were anesthetized again for the second collagen injection. Collagen was prepared by making a 4 mg/mL solution in 0.01N acetic acid. Equal volumes of collagen and incomplete Freund's adjuvant were emulsified by hand mixing until a bead of this material held its form when placed in water. Each animal received 300 μL of the mixture each time, spread over 3 subcutaneous sites on the back. Treatment (p.o., q.d., 5 mL/kg dosing volume) began on day 0 and continued through day 16 with vehicle or compounds given at 24 h intervals. Rats were weighed on days 0, 3, 6 and 9 through 17 and caliper measurements of the ankles taken on days 9 through 17.

In data set [3] the test system is C57BL/6 mice. The data set is described as follows: MOG-induced experimental autoimmune encephalomyelitis (EAE) in mice. As to conditions: 0.3, 1 and 3 mg/kg orally once a day from day 3 until day 21 (FIG. 4). The format is in vivo, mouse.
For data set [4], the system named is mice. The following applies: oral administration to mice; cited from earlier work.
The subject of data set [5] is mice. The following applies: murine; cited from earlier work.
For data set [6] the following is noted: short-term high dose; cited from earlier work.
Data set [7] deals with patients with multiple sclerosis. The following applies: Phase II, relapsing-remitting multiple sclerosis; cited from earlier work.
The conditions of data set [8]: Hale et al. 2004; cited from earlier work.
Data set [9] has as its system dendritic cells infected with Francisella tularensis. The following applies: Bar-Haim et al. 2008; cited from earlier work.
For data set [10] the following is noted: spared nerve injury model; cited from earlier work.
Data set [11] has as its system mice. As to conditions: by reducing the number of mature osteoclasts attached to the bone surface; cited from earlier work.
Another data set addresses S1P3 receptor (Homo sapiens (Human), UniProt Q99500). As to conditions: due to agonism of the S1P3 receptor; cited from earlier work.
Data set [12] has as its system C57BL/6 mice. As to conditions: prophylactic oral administration, 1 mg/kg, three times a week; cited from earlier work.

S1P1 receptor, sequence (P21453 whole entry): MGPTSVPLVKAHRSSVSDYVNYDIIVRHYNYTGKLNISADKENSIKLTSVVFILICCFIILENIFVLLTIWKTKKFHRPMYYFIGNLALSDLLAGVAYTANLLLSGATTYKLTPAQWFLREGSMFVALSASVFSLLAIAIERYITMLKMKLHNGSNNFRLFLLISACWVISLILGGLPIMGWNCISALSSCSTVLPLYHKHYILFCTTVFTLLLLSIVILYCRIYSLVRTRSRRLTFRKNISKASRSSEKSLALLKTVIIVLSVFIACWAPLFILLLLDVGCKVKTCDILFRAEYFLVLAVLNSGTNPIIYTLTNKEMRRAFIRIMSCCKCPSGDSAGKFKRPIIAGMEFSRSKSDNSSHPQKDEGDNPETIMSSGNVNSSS
S1P3 receptor, sequence (Q99500 whole entry): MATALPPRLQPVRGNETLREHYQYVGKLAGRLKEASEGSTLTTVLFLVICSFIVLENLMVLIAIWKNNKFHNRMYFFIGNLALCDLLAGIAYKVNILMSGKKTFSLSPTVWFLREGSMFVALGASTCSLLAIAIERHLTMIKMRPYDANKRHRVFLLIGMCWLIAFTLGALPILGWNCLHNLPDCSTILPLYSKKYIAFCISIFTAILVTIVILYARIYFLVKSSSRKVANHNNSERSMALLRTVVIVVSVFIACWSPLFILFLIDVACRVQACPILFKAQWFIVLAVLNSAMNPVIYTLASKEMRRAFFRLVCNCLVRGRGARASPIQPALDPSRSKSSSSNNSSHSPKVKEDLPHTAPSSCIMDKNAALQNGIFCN

Consider `O=C(O)C[C@H]1CCc2c1[nH]c1ccc(OCc3ccc(C4CCCC4)c(C(F)(F)F)c3)cc21` [(R)-2-(7-(4-cyclopentyl-3-(trifluoromethyl)benzyloxy)-1,2,3,4-tetrahydrocyclopenta[b]indol-3-yl)acetic acid], for which the “peripheral blood lymphocyte (PBL) count lowering” value in the data set on Sprague-Dawley rats [1] and in the data set with BALB/c mice was “exhibited activity for inducing PBL lowering (lymphopenia)” in each case. Further, in the data set on Sprague-Dawley rats [2], the “heart rate (bradycardia)” value is “no or substantially no reduction of heart rate”. On S1P1 receptor, the “S1P1 receptor agonism (decreased cAMP concentration)” value was “agonist of the S1P1 receptor”. For the same compound, the EC50 on S1P1 receptor (n = 22) turned out to be 0.102 nM. For the same compound, the mean ankle diameter entry in the data set with Female Lewis rats was “exhibited activity for reducing mean ankle diameter”. Moreover, the “severity of disease symptoms (clinical score) in EAE” value with C57BL/6 mice [3] is given as “exhibited activity in the mouse EAE assay”.

As for `CCCCCCCCc1ccc(CCC(N)(CO)CO)cc1` [FTY720], the VEGF-induced vascular permeability result in the data set with mice [4] was “potently blocked VEGF-induced vascular permeability”. Besides, the “initiation of contact hypersensitivity” value in the data set with mice [5] is “impair initiation of murine contact hypersensitivity (CHS)”. For the same compound, in data set [6], the ocular infiltrates entry is on record as “rapidly reduced ocular infiltrates”. The “MRI lesions and clinical disease activity” value in [7] is “reduce the number of lesions detected by magnetic resonance imaging (MRI) and clinical disease activity”. The “induction of lymphopenia (PLL)” value in data set [8] is “rapidly and reversibly induce lymphopenia”. Besides, the “migration of infected dendritic cells to the mediastinal lymph node” value in [9] is “impair migration of dendritic cells infected with Francisella tularensis to the mediastinal lymph node”. The nociceptive behavior result in [10] is “reduce the nociceptive behavior”. Moreover, in the data set on mice [11], the ovariectomy-induced osteoporosis entry is “relieved ovariectomy-induced osteoporosis”. Further, at S1P3 receptor, the “adverse event in clinical trials” value is recorded as “transient asymptomatic bradycardia”. The “development of EAMG” value in the data set with C57BL/6 mice [12] was “completely prevented the development of experimental autoimmune myasthenia gravis (EAMG)”.

Broadly, the EC50 is the concentration at which the effect is half-maximal.
